pIC50: −log10 of the molar value.
System: R848-induced TNFα production by human peripheral blood mononuclear cells (PBMCs)
Experiment: R848 Induced TNFα in Human PBMC Assay
Format: cell-based
Conditions: Homo sapiens, PBMC, 3 h, read-out: R848-induced TNFa PBMC IC50 (nM)
From the text: R848 Induced TNFα in Human PBMC Assay.
This protocol is for R848-induced TNFα production by human peripheral blood mononuclear cells (PBMCs). […] The assay is used to assess cell-based potency of small molecule inhibitors of IRAK4 in the absence of serum.
The PBMCs in the interphase layer were collected and washed with PBS via centrifugation multiple times until the supernatant is clear. The purified PBMCs were re-suspended in RPMI (Roswell Park Memorial Institute) media (Sigma-Aldrich).
For the assay, a compound dilution plate containing a top concentration of 4 mM compound in DMSO was serially diluted 4-fold for 11 times. 250 nL of the compound dilution plate was spotted into a 384-well, flat bottom with lid, TC-treated, black with clear bottom, sterile, polystyrene plate (Corning Life Sciences).
10 μL of anti-TNFα antibody labeled with MSD SULFO-TAG at 50 μg/mL was added to each well and allowed to incubate overnight at 4° C.

| SMILES | IC50 |
| --- | --- |
| COc1cc2c(OC[C@H]3NC(=O)[C@@H]4CC[C@H]34)nccc2cc1C(N)=O [Example 308, 7-methoxy-1-{[(1S,2S,5R)-4-oxo-3-azabicyclo[3.2.0]hept-2-yl]methoxy}isoquinoline-6-carboxamide] | 134 nM |
| COc1cc2c(OC[C@H]3NC(=O)[C@@H]4C[C@]34C)nccc2cc1C(N)=O [Example 295, 7-methoxy-1-{[(1S,2S,5R)-1-methyl-4-oxo-3-azabicyclo[3.1.0]hex-2-yl]methoxy}isoquinoline-6-carboxamide] | 67 nM |
| COc1cc2c(OC[C@H]3NC(=O)[C@H]4C3[C@H]4C)nccc2cc1C(N)=O (stereo in doubt) [Example 285, 7-methoxy-1-(((1R,2S,5R,6R)-6-methyl-4-oxo-3-azabicyclo[3.1.0]hexan-2-yl)methoxy)isoquinoline-6-carboxamide] | 1060 nM |
| CCOc1cc2c(OC[C@@H]3C[C@](C)(F)C(=O)N3)ccnc2cc1C(N)=O [Example 287, 6-ethoxy-4-{[(2S,4S)-4-fluoro-4-methyl-5-oxopyrrolidin-2-yl]methoxy}quinoline-7-carboxamide] | 2300 nM |
| CC[C@@H]1C2[C@@H](COc3nccc4cc(C(N)=O)c(OC)cc34)NC(=O)[C@@H]21 (stereo in doubt) [Example 301, 1-(((1R,2S,5R,6R)-6-ethyl-4-oxo-3-azabicyclo[3.1.0]hexan-2-yl)methoxy)-7-methoxyisoquinoline-6-carboxamide] | 4050 nM |
| COc1cc2c(OC[C@@H]3C[C@@H](C4(O)CCOCC4)C(=O)N3)nccc2cc1C(N)=O [Example 289, 1-{[(2S,4S)-4-(4-hydroxytetrahydro-2H-pyran-4-yl)-5-oxopyrrolidin-2-yl]methoxy}-7-methoxyisoquinoline-6-carboxamide] | 6270 nM |
| CCC1C[C@@H](COc2nccc3cc(C(N)=O)c(OC(C)C)cc23)NC1=O (single isomer, unassigned) [Example 113] | 53 nM |
| CC[C@]12C[C@H]1C(=O)N[C@@H]2COc1nccc2cc(C(N)=O)c(OC)cc12 [Example 299, 1-{[(1S,2S,5R)-1-ethyl-4-oxo-3-azabicyclo[3.1.0]hex-2-yl]methoxy}-7-methoxyisoquinoline-6-carboxamide] | 49 nM |
| COc1cc2c(OC[C@H]3NC(=O)[C@@H](F)[C@@H]3C)nccc2cc1C(N)=O [Example 203, 1-{[(2S,3R,4S)-4-fluoro-3-methyl-5-oxopyrrolidin-2-yl]methoxy}-7-methoxyisoquinoline-6-carboxamide] | 47 nM |
| COc1cc2c(OC[C@H]3NC(=O)[C@@H]4C(CCF)C43)nccc2cc1C(N)=O (stereo in doubt) [Example 306, 1-(((1R,2S,5R,6R)-6-(2-fluoroethyl)-4-oxo-3-azabicyclo[3.1.0]hexan-2-yl)methoxy)-7-methoxyisoquinoline-6-carboxamide] | 4060 nM |
| COc1cc2c(OC[C@@H]3CCCC(=O)N3)nccc2cc1C(N)=O [Example 302, 7-methoxy-1-{[(2S)-6-oxopiperidin-2-yl]methoxy}isoquinoline-6-carboxamide] | 1280 nM |
| COc1cc2c(OC[C@H]3NC(=O)[C@]4(C)C[C@H]34)nccc2cc1C(N)=O [Example 297, 7-methoxy-1-{[(1S,2S,5R)-5-methyl-4-oxo-3-azabicyclo[3.1.0]hex-2-yl]methoxy}isoquinoline-6-carboxamide] | 7120 nM |
| CCOc1cc2c(OC[C@@H]3C[C@@](F)(CF)C(=O)N3)ccnc2cc1C(N)=O [Example 293, 6-ethoxy-4-{[(2S,4S)-4-fluoro-4-(fluoromethyl)-5-oxopyrrolidin-2-yl]methoxy}quinoline-7-carboxamide] | 462 nM |
| CC[C@@H]1[C@H]2C(=O)N[C@H](COc3nccc4cc(C(N)=O)c(OC)cc34)[C@@H]12 [Example 300, 1-{[(1S,2S,5R)-6-ethyl-4-oxo-3-azabicyclo[3.1.0]hex-2-yl]methoxy}-7-methoxyisoquinoline-6-carboxamide] | 931 nM |
| COc1cc2c(OC[C@@H]3NC(=O)C[C@@H]3C)nccc2cc1C(N)=O [Example 277, 7-methoxy-1-{[(2R,3S)-3-methyl-5-oxopyrrolidin-2-yl]methoxy}isoquinoline-6-carboxamide] | 4420 nM |
| COc1cc2c(OC[C@@H]3NC(=O)[C@H](F)[C@@H]3C)nccc2cc1C(N)=O [Example 288, 1-{[(2R,3R,4R)-4-fluoro-3-methyl-5-oxopyrrolidin-2-yl]methoxy}-7-methoxyisoquinoline-6-carboxamide] | 1810 nM |
| CCOc1cc2c(OC[C@@H]3C[C@@](F)(CF)C(=O)N3)nccc2cc1C(N)=O [Example 294, 7-ethoxy-1-{[(2S,4S)-4-fluoro-4-(fluoromethyl)-5-oxopyrrolidin-2-yl]methoxy}isoquinoline-6-carboxamide] | 24 nM |
| CCOc1cc2c(OC[C@H]3NC(=O)[C@@H](F)[C@H]3C)nccc2cc1C(N)=O [Example 283, 7-ethoxy-1-{[(2S,3S,4S)-4-fluoro-3-methyl-5-oxopyrrolidin-2-yl]methoxy}isoquinoline-6-carboxamide] | 27 nM |
| COc1cc2c(OC[C@H]3NC(=O)C[C@H]3C3CC3)nccc2cc1C(N)=O [Example 305, 1-{[(2S,3S)-3-cyclopropyl-5-oxopyrrolidin-2-yl]methoxy}-7-methoxyisoquinoline-6-carboxamide] | 57 nM |
| COC[C@]1(F)C[C@@H](COc2nccc3cc(C(N)=O)c(OC)cc23)NC1=O [Example 292, 1-{[(2S,4R)-4-fluoro-4-(methoxymethyl)-5-oxopyrrolidin-2-yl]methoxy}-7-methoxyisoquinoline-6-carboxamide] | 3140 nM |
| COc1cc2c(OC[C@@H]3C[C@@](F)(C4CCOCC4)C(=O)N3)nccc2cc1C(N)=O [Example 284, 1-{[(2S,4R)-4-fluoro-5-oxo-4-(tetrahydro-2H-pyran-4-yl)pyrrolidin-2-yl]methoxy}-7-methoxyisoquinoline-6-carboxamide] | 320 nM |

Same assay, conditions: human PBMC, absence of serum, 3 hours; read-out: R848-induced TNFa PBMC IC50

| SMILES | pIC50 |
| --- | --- |
| COc1cc2c(OC[C@@H]3C[C@@](F)(CC(F)(F)F)C(=O)N3)cccc2cc1C(N)=O [Example 240, 5-{[(2S,4R)-4-fluoro-5-oxo-4-(2,2,2-trifluoroethyl)pyrrolidin-2-yl]methoxy}-3-methoxynaphthalene-2-carboxamide] | 7.62 |
| COc1cc2c(OC[C@@H]3C[C@@](F)(CO)C(=O)N3)cccc2cc1C(N)=O [Example 207, 5-{[(2S,4R)-4-fluoro-4-(hydroxymethyl)-5-oxopyrrolidin-2-yl]methoxy}-3-methoxynaphthalene-2-carboxamide] | 7.39 |
| [2H]C([2H])([2H])C([2H])([2H])[C@@H]1[C@H](F)C(=O)N[C@@H]1COc1nccc2cc(C(N)=O)c(OC)cc12 [Example 344, 1-{[(2S,3S,4S)-3-(pentadeutero)ethyl-4-fluoro-5-oxopyrrolidin-2-yl]methoxy}-7-methoxyisoquinoline-6-carboxamide] | 9.30 |
| [2H]C([2H])([2H])Oc1cc2c(OC[C@H]3NC(=O)[C@@H](F)[C@H]3CC)nccc2cc1C(N)=O [Example 338, 1-{[(2S,3S,4S)-3-ethyl-4-fluoro-5-oxopyrrolidin-2-yl]methoxy}-7-[(trideutero)methyloxy]isoquinoline-6-carboxamide] | 8.52 |
| CC[C@]1(O)[C@H](F)C(=O)N[C@@H]1COc1nccc2cc(C(N)=O)c(OC)cc12 [Example 196, 1-{[(2R,3R,4S)-3-ethyl-4-fluoro-3-hydroxy-5-oxopyrrolidin-2-yl]methoxy}-7-methoxyisoquinoline-6-carboxamide] | 7.96 |
| COc1cc2c(OC[C@@H]3C[C@](F)(CC(F)(F)F)C(=O)N3)cccc2cc1C(N)=O [Example 241, 5-{[(2S,4S)-4-fluoro-5-oxo-4-(2,2,2-trifluoroethyl)pyrrolidin-2-yl]methoxy}-3-methoxynaphthalene-2-carboxamide] | 5.24 |
| COc1cc2c(OC[C@H]3NC(=O)[C@@H](F)[C@H]3C(C)O)nccc2cc1C(N)=O (stereo partly drawn) [Example 198, 1-{[(2S,3R,4S)-4-fluoro-3-(1-hydroxyethyl)-5-oxopyrrolidin-2-yl]methoxy}-7-methoxyisoquinoline-6-carboxamide] | 6.15 |
| [2H][C@]1(CC)[C@@H](COc2nccc3cc(C(N)=O)c(OC)cc23)NC(=O)[C@@]1([2H])F [Example 374, 1-{[(2S,3S,4S)-3-ethyl-4-fluoro-5-oxo(3,4-bisdeutero)pyrrolidin-2-yl]methoxy}-7-methoxyisoquinoline-6-carboxamide] | 8.92 |
| CC[C@@H]1[C@@H](COc2nccc3cc(C(N)=O)c(OC)cc23)NC(=O)[C@@H]1F [Example 346, 1-{[(2S,3R,4R)-3-ethyl-4-fluoro-5-oxopyrrolidin-2-yl]methoxy}-7-methoxyisoquinoline-6-carboxamide] | 6.82 |

Biological target: human IRAK4 FL (Full Length) (Homo sapiens (Human), UniProt Q9NWZ3)
Experiment: IRAK4 Enzymatic DELFIA Assay, Protocol A
Format: biochemical
Conditions: human IRAK4 FL, 0.6 mM ATP (KM); read-out: IRAK4 DELFIA Protocol A IC50

Chain of human IRAK4 FL (Full Length) (Q9NWZ3 whole entry): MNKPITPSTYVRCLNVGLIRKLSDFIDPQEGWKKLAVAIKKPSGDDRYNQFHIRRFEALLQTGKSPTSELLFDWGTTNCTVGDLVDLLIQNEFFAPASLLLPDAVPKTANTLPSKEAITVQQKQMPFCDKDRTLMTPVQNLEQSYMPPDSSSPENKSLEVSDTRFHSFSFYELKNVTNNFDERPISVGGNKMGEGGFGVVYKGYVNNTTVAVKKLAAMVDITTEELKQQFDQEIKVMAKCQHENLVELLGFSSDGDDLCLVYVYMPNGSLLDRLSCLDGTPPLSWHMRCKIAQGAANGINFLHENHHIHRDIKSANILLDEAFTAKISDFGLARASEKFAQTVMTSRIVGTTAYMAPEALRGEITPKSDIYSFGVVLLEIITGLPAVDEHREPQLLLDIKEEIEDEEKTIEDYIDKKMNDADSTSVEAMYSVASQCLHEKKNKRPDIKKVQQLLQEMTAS

| SMILES | pIC50 |
| --- | --- |
| Cc1ccnc(-c2cnc(OC[C@@H]3CCC(=O)N3)c3cc(OC(C)C)c(C(N)=O)cc23)n1 [Example 376, 4-(4-methylpyrimidin-2-yl)-1-{[(2S)-5-oxopyrrolidin-2-yl]methoxy}-7-(propan-2-yloxy)isoquinoline-6-carboxamide] | 6.13 |
| CC(C)Oc1cc2c(O[C@H](C)[C@@H]3CCC(=O)N3)nccc2cc1C(N)=O [Example 156, 1-{(1R)-1-[(2S)-5-oxopyrrolidin-2-yl]ethoxy}-7-(propan-2-yloxy)isoquinoline-6-carboxamide] | 5.39 |
| COc1cc2c(OC[C@H]3NC(=O)[C@H](F)[C@H]3CF)nccc2cc1C(N)=O [Example 375, 1-{[(2S,3R,4R)-4-fluoro-3-(fluoromethyl)-5-oxopyrrolidin-2-yl]methoxy}-7-methoxyisoquinoline-6-carboxamide] | 9.52 |
| CC(C)Oc1cc2c(OCC3CCC(=O)NC3)nccc2cc1C(N)=O (centres unmarked) [Example 142, 1-[(6-oxopiperidin-3-yl)methoxy]-7-(propan-2-yloxy)isoquinoline-6-carboxamide] | 5.91 |
| COc1cc2c(O[C@@H](C)[C@@H]3CCC(=O)N3)nccc2cc1C(N)=O [Example 354, 7-methoxy-1-{(1S)-1-[(2S)-5-oxopyrrolidin-2-yl]ethoxy}isoquinoline-6-carboxamide] | 5.54 |
